Earlier results, collected in patent US5468754A, “11,7 substituted camptothecin derivatives and formulations of 11,7 substituted camptothecin derivatives and methods for uses thereof” (priority 1994, dated 1995).
Entries after “also recorded” stand apart in the source; their conditions may differ. Like-named read-outs stand apart in the source and are kept apart here.

How the values were obtained:
[1] = cited from earlier work
Breast = details: Clavel et al, 90 min QDx3 Q21 days; cited from earlier work
Mesothelioma = details: Clavel et al, 90 min QDx3 Q21 days; cited from earlier work
esophagus = details: Culine et al, 90 min, 150 mg/m2/wk (50-150); cited from earlier work
cervix = details: cited from earlier work
renal = details: Culine et al, 90 min, 150 mg/m2/wk (50-150); cited from earlier work
ovarian = details: Culine et al, 90 min, 150 mg/m2/wk (50-150); cited from earlier work
Colon Ca = details: cited from earlier work
[2] = Ohe et al; 120 hr infusion Q3 wks, 40 mg/m2/d (5-40); cited from earlier work
[3] = cited from earlier work; remark: listed apart in the source
[4] = system: Untreated Non Small Cell Lung Cancer; details: Fukuoka et al; 100 mg/m^2; 73 pts; cited from earlier work
[5] = system: Refractory or Relapsed Small Cell Lung Cancer; details: Masudu et al; 100 mg/m^2 weekly; 16 pts; cited from earlier work
Small Cell Lung Cancer = details: Negoro et al, 100 mg/m^2/week, 41 pts, cited from earlier work
Leukemia/Lymphoma = details: Ohono et al, cited from earlier work
Colon cancer = details: Shimada et al; 100 mg/m^2/week or 150 mg/m^2/Q 2 wks; 17 pts; cited from earlier work
Cervical cancer = details: Takeuchi et al; 100 mg/m^2 weekly, 150 mg/m^2 weeks; 69 pts; cited from earlier work
[6] = 5-day continuous intravenous infusion; cited from earlier work
[7] = patients; cited from earlier work
[8] = system: Topoisomerase I, purified from human colon carcinoma cells; details: cited from earlier work
[9] = system: Topoisomerase I, purified from calf thymus; details: cited from earlier work
[10] = compared with parent compound camptothecin; cited from earlier work
[11] = system: Human lung cancer cell lines; details: human lung cancer cell lines vs normal cells; cited from earlier work
[12] = system: xenografts of human tumors; details: Kawato et al., nude mice; cited from earlier work
[13] = compared with parent compound camptothecin; cited from earlier work; remark: listed apart in the source
[14] = cited from earlier work; remark: listed apart in the source
[15] = Clavel et al, 90 min, QDx3 Q21 days, 115 mg/m2/d (33-115), 37 pts
[16] = Culine et al, 90 min, Q21 days, 150 mg/m2/wk (50-150), 59 pts
[17] = Negoro et al, 30 min infusion weekly, 100 mg/m2 (50-150), 17 pts
[18] = Ohe et al, 120 hr CI Q3 wks, 40 mg/m2/d (5-40), 36 pts
[19] = Rothenberg et al, QWx4 Q42 days, 180 mg/m2/wk (50-180), 32 pts
[20] = Rowinsky et al, 90 min infusion Q21 day, 240 mg/m2 (100-345), 32 pts
[21] = Negoro et al, Small Cell Lung Cancer, 100 mg/m^2/week
[22] = Ohono et al, Leukemia/Lymphoma, 62 pts
[23] = Shimada et al, Colon cancer, 17 pts
[24] = Takeuchi et al, Cervical cancer, 69 pts

## CCc1c2c(nc3ccc(OC(=O)N4CCC(N5CCCCC5)CC4)cc13)-c1cc3c(c(=O)n1C2)COC(=O)[C@]3(O)CC [CPT-11]
[1]; [15]
  Toxicity: diarrhea; also recorded: nausea; also recorded: vomiting; also recorded: alopecia
  Toxicity (Dose Limiting Toxicity): Neutropenia
[1]; [16]
  Toxicity: vomiting; also recorded: alopecia; also recorded: fatigue; also recorded: stomatitis
  Toxicity (Dose Limiting Toxicity): Neutropenia; also recorded: diarrhea
[1]; [17]
  Toxicity: N/V and alopecia and liver
  Toxicity (Dose Limiting Toxicity): Neutropenia; also recorded: Diarrhea
[1]; [18]
  Toxicity: nausea; also recorded: vomiting; also recorded: thromobo-; also recorded: anemia; also recorded: liver
  Toxicity (Dose Limiting Toxicity): Diarrhea
[1]; Phase I and Phase II clinical trials of CPT-11
  major reported, dose-limiting toxicities: Neutropenia and diarrhea
[1]; [19]
  Toxicity: Neutropenia; also recorded: nausea; also recorded: vomiting; also recorded: alopecia
  Toxicity (Dose Limiting Toxicity): Diarrhea
[1]; [20]
  Toxicity: vomiting and diarrhea and pain and flushing
  Toxicity (Dose Limiting Toxicity): Neutropenia
Breast
  Tumor response (partial responses): 1 PR
Mesothelioma
  Tumor response (partial responses): 1 PR
esophagus
  Tumor response (partial responses): 1 PR
cervix; Culine et al, cervix, 90 min, 150 mg/m2/wk (50-150)
  Tumor response (partial responses): 1 PR
cervix; Rowinsky et al, Cervix Ca, 90 min infusion Q21 day, 240 mg/m2 (100-345)
  Tumor response (partial responses): 1 PR
renal
  Tumor response (partial responses): 1 PR
ovarian
  Tumor response (partial responses): 1 PR
Colon Ca; Rothenberg et al, QWx4 Q42 days, 180 mg/m2/wk (50-180)
  Tumor response (partial responses): 2 PRs
Colon Ca; Rowinsky et al, 90 min infusion Q21 day, 240 mg/m2 (100-345)
  Tumor response (partial responses): 1 PR
[2]
  Tumor response: None
[3]; Fukuoka et al, Untreated Non Small Cell Lung Cancer, 100 mg/m^2
  Toxicity: Neutropenia; also recorded: diarrhea; also recorded: nausea; also recorded: vomiting; also recorded: anorexia; also recorded: alopecia
[3]; Masudu et al, 100 mg/m^2 weekly, 16 pts
  pneumonitis: 12.5%
[3]; Masudu et al, Refractory or Relapsed Small Cell Lung Cancer, 100 mg/m^2 weekly
  Toxicity: Neutropenia; also recorded: diarrhea
[3]; [21]
  N/V: 61.5%
  alopecia: 40.0%
  diarrhea: 53.8%
[3]; [22]
  Gastrointestinal: 76%
  Toxicity: Thromocytopenia
[3]; [23]
  N/V: 35%
  diarrhea: 24%
[3]; [24]
  N/V: 51%
  alopecia: 38.1%
  diarrhea: 39.1%
[4]
  RESPONSE (PRs): 31.9%
  RESPONSE (PRs, patients): 23/72
[5]
  RESPONSE (PRs): 47%
  RESPONSE (PRs, patients): 7/15
Small Cell Lung Cancer; 2 CRs and 7 PRs
  RESPONSE: 33.3%
Small Cell Lung Cancer
  RESPONSE (CRs): 2 CRs
  RESPONSE (PRs): 7 PRs
Leukemia/Lymphoma; 20 mg/m^2 bid x7
  RESPONSE (RR): 25 % RR
Leukemia/Lymphoma; 40 mg/m^2 x5
  RESPONSE (PR): 34 % PR
Leukemia/Lymphoma; 200 mg Q3
  RESPONSE: No resp.
Colon cancer
  RESPONSE: 46%
  RESPONSE (PR, patients): 6/17
Cervical cancer
  RESPONSE (CR): SCR
  RESPONSE (PR): 8 PR
  RESPONSE (RR): 23.6%
[6]
  conversion of CPT-11 to SN38: saturable process
[7]
  variability of metabolic conversion of CPT-11 to SN38: large range of interpatient variability; also recorded: varies from patient to patient
[8]
  inhibition of Topoisomerase I: inhibited
[9]
  inhibition of Topoisomerase I: inhibited
[10]
  antitumor activity: retain the significant antitumor activity of the parent compound
[11]
  conversion of CPT-11 to SN38: convert less CPT-11 to SN38 than normal cells
[12]
  sensitivity of human tumors vs their ability to produce SN38: independent of their ability to produce SN38
[13]
  Toxicity: less sporadic toxicities
[14]; 50 mg/m2 single dose I.V.
  Fractional amount of lactone species, CPT-11 CpMax Based: 0.51
[14]; 80 mg/m2 single dose I.V.
  Fractional amount of lactone species, CPT-11 CpMax Based: 0.44
[14]; 100 mg/m2 single dose I.V.
  Fractional amount of lactone species, CPT-11 CpMax Based: 0.53
[14]; 125 mg/m2 single dose I.V.
  Fractional amount of lactone species, CPT-11 CpMax Based: 0.55
[14]; 150 mg/m2 single dose I.V.
  Fractional amount of lactone species, CPT-11 CpMax Based: 0.42
[14]; 180 mg/m2 single dose I.V.
  Fractional amount of lactone species, CPT-11 CpMax Based: 0.42
[14]; through a range of doses, total AUC and CpMax data
  overall fractional concentration of the lactone species: fairly constant through a range of doses
